Results: US20230011571A1, “SMALL MOLECULE FURIN INHIBITORS FOR TREATING INFECTIOUS DISEASES” (BP Asset V, Inc., priority 2019, published 2023)

Key:
Type in all cases: cell-based
[1] = tested on: Chikungunya virus (CHIKV); assay: microbe, parasite or virus in culture; conditions: Chikungunya virus, Vero, 48 h, read-out: Percent viral inhibition CHKV
dengue virus (DENV) = assay: microbe, parasite or virus in culture; conditions: Dengue virus, Vero, 120 h, read-out: Percent viral inhibition DENY
Marburg virus (MARV) = assay: organism not typed; conditions: Vero, 72 h, read-out: Percent viral inhibition MARV

Compound	inhibition at 1 µM [1]	inhibition at 1 µM (dengue virus (DENV))	inhibition at 1 µM (Marburg virus (MARV))
NS(=O)(=O)CCCN1CCN(c2ncc(Oc3cc(CN4CCC(CC(=O)O)CC4)cc(-c4cc(Cl)cc(Cl)c4)n3)cn2)CC1 [Example 246, 2-(1-((2-(3,5-dichlorophenyl)-6-((2-(4-(3-sulfamoylpropyl)piperazin-1-yl)pyrimidin-5-yl)oxy)pyridin-4-yl)methyl)piperidin-4-yl)acetic acid]	24.6%	50.8%	39.9%
COCCN1CCN(c2ncc(Oc3cc(CN4CCC(CC(=O)O)CC4)cc(-c4cc(Cl)cc(Cl)c4)n3)cn2)CC1 [Example 247, 2-(1-((2-(3,5-dichlorophenyl)-6-((2-(4-(2-methoxyethyl)piperazin-1-yl)pyrimidin-5-yl)oxy)pyridin-4-yl)methyl)piperidin-4-yl)acetic acid]	31.1%	50%	49.7%
CNC(=O)OCC1CCN(Cc2cc(Oc3cnc(N4CCN(CCC(=O)O)CC4)nc3)nc(-c3cc(Cl)cc(Cl)c3)c2)CC1 [Example 248, 3-(4-(5-((6-(3,5-dichlorophenyl)-4-((4-(((methylcarbamoyl)oxy)methyl)piperidin-1-yl)methyl)pyridin-2-yl)oxy)pyrimidin-2-yl)piperazin-1-yl) propanoic acid]	34.8%	81.2%	49.6%
CC(=O)NCC1CCN(Cc2cc(Oc3ccc(N4CCN(CCCC(=O)O)CC4)nc3)nc(-c3cc(Cl)cc(Cl)c3)c2)CC1 [Example 249, 4-(4-(5-((4-((4-(acetamidomethyl)piperidin-1-yl)methyl)-6-(3,5-dichlorophenyl)pyridin-2-yl)oxy)pyridin-2-yl)piperazin-1-yl)butanoic acid]	32.5%	48.6%	51.4%
COCCN1CCN(c2ccc(Oc3cc(CN4CCC(CNC(C)=O)CC4)cc(-c4cc(Cl)cc(Cl)c4)n3)cn2)CC1 [Example 250, N-((1-((2-(3,5-dichlorophenyl)-6-((6-(4-(2-methoxyethyl)piperazin-1-yl)pyridin-3-yl)oxy)pyridin-4-yl)methyl)piperidin-4-yl)methyl)acetamide]	25.9%	55%	0%
CC(=O)NCC1CCN(Cc2cc(Oc3ccc(N4CCN(CCCS(C)(=O)=O)CC4)nc3)nc(-c3cc(Cl)cc(Cl)c3)c2)CC1 [Example 251, N-((1-((2-(3,5-dichlorophenyl)-6-((6-(4-(3-(methylsulfonyl)propyl)piperazin-1-yl)pyridin-3-yl)oxy)pyridin-4-yl)methyl)piperidin-4-yl)methyl)acetamide]	0%	45.5%	38.9%
NS(=O)(=O)CCCN1CCN(c2ccc(Oc3cc(CN4CCC(CC(=O)O)CC4)cc(-c4cc(Cl)cc(Cl)c4)n3)cn2)CC1 [Example 252, 2-(1-((2-(3,5-dichlorophenyl)-6-((6-(4-(3-sulfamoylpropyl)piperazin-1-yl)pyridin-3-yl)oxy)pyridin-4-yl)methyl)piperidin-4-yl)acetic acid]	33.2%	23.3%	53.5%
CC(=O)NCC1CCN(Cc2cc(Oc3cnc(N4CCN(CCCS(N)(=O)=O)CC4)nc3)nc(-c3cc(Cl)cc(Cl)c3)c2)CC1 [Example 253, N-((1-((2-(3,5-dichlorophenyl)-6-((2-(4-(3-sulfamoylpropyl)piperazin-1-yl)pyrimidin-5-yl)oxy)pyridin-4-yl)methyl)piperidin-4-yl)methyl)acetamide]	36.1%	27.3%	52.1%
CNC(=O)NCC1CCN(Cc2cc(Oc3ccc(N4CCN(CCOC)CC4)nc3)nc(-c3cc(Cl)cc(Cl)c3)c2)CC1 [Example 254, 1-((1-((2-(3,5-dichlorophenyl)-6-((6-(4-(2-methoxyethyl)piperazin-1-yl)pyridin-3-yl)oxy)pyridin-4-yl)methyl)piperidin-4-yl)methyl)-3-methylurea]	5.74%	57%	40.4%
CNC(=O)NCC1CCN(Cc2cc(Oc3ccc(N4CCN(CCCS(C)(=O)=O)CC4)nc3)nc(-c3cc(Cl)cc(Cl)c3)c2)CC1 [Example 255, 1-((1-((2-(3,5-dichlorophenyl)-6-((6-(4-(3-(methylsulfonyl)propyl)piperazin-1-yl)pyridin-3-yl)oxy)pyridin-4-yl)methyl)piperidin-4-yl)methyl)-3-methylurea]	16.1%	10.3%	40.1%
CNC(=O)NCC1CCN(Cc2cc(Oc3cnc(N4CCN(CCC(=O)O)CC4)nc3)nc(-c3cc(Cl)cc(Cl)c3)c2)CC1 [Example 256, 3-(4-(5-((6-(3,5-dichlorophenyl)-4-((4-((3-methylureido)methyl)piperidin-1-yl)methyl)pyridin-2-yl)oxy)pyrimidin-2-yl)piperazin-1-yl)propanoic acid]	30.4%	47.2%	49.3%
CNC(=O)NCC1CCN(Cc2cc(Oc3cnc(N4CCN(CCCS(C)(=O)=O)CC4)nc3)nc(-c3cc(Cl)cc(Cl)c3)c2)CC1 [Example 257, 1-((1-((2-(3,5-dichlorophenyl)-6-((2-(4-(3-(methylsulfonyl)propyl)piperazin-1-yl)pyrimidin-5-yl)oxy)pyridin-4-yl)methyl)piperidin-4-yl)methyl)-3-methylurea]	10.3%	46.5%	26.5%
CC(=O)NCC1CCN(Cc2cc(Oc3cnc(N4CCN(CCCS(C)(=O)=O)CC4)nc3)nc(-c3cc(Cl)cc(Cl)c3)c2)CC1 [Example 259, N-((1-((2-(3,5-dichlorophenyl)-6-((2-(4-(3-(methylsulfonyl)propyl)piperazin-1-yl)pyrimidin-5-yl)oxy)pyridin-4-yl)methyl)piperidin-4-yl)methyl)acetamide]	15%	47%	67.2%
CNC(=O)NCC1CCN(Cc2cc(Oc3cnc(N4CCN(CCC(N)=O)CC4)nc3)nc(-c3cc(Cl)cc(Cl)c3)c2)CC1 [Example 261, 3-(4-(5-((6-(3,5-dichlorophenyl)-4-((4-((3-methylureido)methyl)piperidin-1-yl)methyl)pyridin-2-yl)oxy)pyrimidin-2-yl)piperazin-1-yl) propanamide]	0.69%	53.6%	56.8%
CNC(=O)NCC1CCN(Cc2cc(Oc3cnc(N4CCN(CCOC)CC4)nc3)nc(-c3cc(Cl)cc(Cl)c3)c2)CC1 [Example 262, 1-((1-((2-(3,5-dichlorophenyl)-6-((2-(4-(2-methoxyethyl)piperazin-1-yl)pyrimidin-5-yl)oxy)pyridin-4-yl)methyl)piperidin-4-yl)methyl)-3-methylurea]	19%	10.3%	39.3%
CC(=O)NCC1CCN(Cc2cc(Oc3cnc(N4CCN(CCC(=O)O)CC4)nc3)nc(-c3cc(Cl)cc(Cl)c3)c2)CC1 [Example 263, 3-(4-(5-((4-((4-(acetamidomethyl)piperidin-1-yl)methyl)-6-(3,5-dichlorophenyl)pyridin-2-yl)oxy)pyrimidin-2-yl)piperazin-1-yl)propanoic acid]	28.9%	39.7%	48.5%
CC(=O)NCC1CCN(Cc2cc(Oc3cnc(N4CCN(CCC(=O)O)CC4)c(F)c3)nc(-c3cc(Cl)cc(Cl)c3)c2)CC1 [Example 266]	22.6%	48.7%	56.3%
CCOC(=O)NCC1CCN(Cc2cc(Oc3cnc(N4CCN(CCC(=O)O)CC4)nc3)nc(-c3cc(Cl)cc(Cl)c3)c2)CC1 [Example 267, 3-(4-(5-((6-(3,5-dichlorophenyl)-4-((4-(((ethoxycarbonyl)amino)methyl)piperidin-1-yl)methyl)pyridin-2-yl)oxy)pyrimidin-2-yl)piperazin-1-yl) propanoic acid]	34.6%	37%	65%
CC(CC1CCN(Cc2cc(Oc3cnc(N4CCNCC4)nc3)nc(-c3cc(Cl)cc(Cl)c3)c2)CC1)C(=O)O (stereo not drawn) [Example 269, 3-(1-((2-(3,5-dichlorophenyl)-6-((2-(piperazin-1-yl)pyrimidin-5-yl)oxy)pyridin-4-yl)methyl)piperidin-4-yl)-2-methylpropanoic acid]	24.5%	39.5%	35%
CNC(=O)NCC1CCN(Cc2cc(Oc3cnc(N4CCN(CCC(=O)O)CC4)c(F)c3)nc(-c3cc(Cl)cc(Cl)c3)c2)CC1 [Example 270, 3-(4-(5-((6-(3,5-dichlorophenyl)-4-((4-((3-methylureido)methyl)piperidin-1-yl)methyl)pyridin-2-yl)oxy)-3-fluoropyridin-2-yl)piperazin-1-yl)propanoic acid]	30.7%	61.6%	53.6%
CS(=O)(=O)CCCN1CCN(c2ccc(Oc3cc(CN4CCC(CCC(=O)O)CC4)cc(-c4cc(Cl)cc(Cl)c4)n3)cn2)CC1 [Example 271, 3-(1-((2-(3,5-dichlorophenyl)-6-((6-(4-(3-(methylsulfonyl)propyl)piperazin-1-yl)pyridin-3-yl)oxy)pyridin-4-yl)methyl)piperidin-4-yl)propanoic acid]	22.5%	0%	59.7%
CS(=O)(=O)CCCN1CCN(c2ncc(Oc3cc(CN4CCC(CCC(=O)O)CC4)cc(-c4cc(Cl)cc(Cl)c4)n3)cn2)CC1 [Example 272, 3-(1-((2-(3,5-dichlorophenyl)-6-((2-(4-(3-(methylsulfonyl)propyl)piperazin-1-yl)pyrimidin-5-yl)oxy)pyridin-4-yl)methyl)piperidin-4-yl)propanoic acid]	30.3%	42.4%	45.5%
CC(=O)NCC1CCN(Cc2cc(Oc3cnc(N4CCN(CCC(N)=O)CC4)nc3)nc(-c3cc(F)c(F)c(Cl)c3)c2)CC1 [Example 273]	23.4%	25.4%	58.5%
